Test results from EP4692094A1 (Beijing Konruns Pharmaceutical Co., Ltd., priority 2023, dated 2024).
Read-outs that look alike come from different tables or passages of the source.

How the values were obtained:
[1] = Assay for plasma protein binding rate (equilibrium dialysis), rat plasma; type: in vitro ADME; settings: dialysis 6 h at 37 °C, read-out: Rat (Fu%)
Protocol: (§1) 1.1 Preparation of compounds: The compounds prepared in the examples were each dissolved in dimethylsulfoxide to give solutions at a concentration of 10 mmol/L. • 1) The example compounds were each diluted from 10 mmol/L stock solution to 0.2 mmol/L, i.e., 1 µL of the compound was added to 49 µL of DMSO; • 2) 3 µL of 0.2 mmol/L test compounds were added to 597 µL of blood plasma, and the mixtures were vortexed at 1000 rpm for 2 min; • 3) 50 µL of the plasma containing the drug in 2) was taken, 50 µL of PBS was added, and 300 µL of methanol internal standard* was added to serve as a sample T0; • 4) 120 µL of the plasma containing the drug in 2) was taken and added to one side of an HTD device membrane, and 120 µL of PBS was added to the other side of the membrane; a breathable film was covered, and the plasma and the residual sample in 2) were balanced at 37 °C (100 rpm and 5% CO2) for 6 h; • 5) 50 µL of the dialyzed plasma side sample was taken, 50 µL of PBS was added, and 300 µL of methanol internal standard* was added to serve as a sample P; • 6) 50 µL of the dialyzed PBS side sample was taken, 50 µL of blank plasma was added, and 300 µL of methanol internal standard* was added to serve as a sample B; • 7) 50 µL of the plasma containing the drug in 2) was taken, 50 µL of PBS was added, and 300 µL of methanol internal standard* was added to serve as a sample T6; • 8) All samples were vortexed, mixed homogeneously, and then centrifuged at 3220 g for 40 min at 4 °C; • 9) 100 µL of the supernatant and 100 µL of purified water were mixed homogenously for liquid chromatography-mass spectrometry.
(§2) An internal standard method was used, and the plasma protein binding rate, recovery rate, and residual percentage were calculated by using Excel according to the ratio of the peak area of the sample to the peak area of the internal standard. Free rate(%) = (RatioB)/(RatioP) × 100% [formula] Binding rate(%) = 100%−Free rate% [formula] Recovery rate(%) = (RatioB + RatioP)/(RatioT0) × 100% [formula] Remaining percentage(%) = (RatioT6)/(RatioT0) × 100% [formula]
(§3) RatioB: a ratio of the peak area of the test substance on the PBS side to the peak area of the internal standard; RatioP: a ratio of the peak area of the test substance on the plasma side to the peak area of the internal standard; RatioT6: a ratio of the peak area of the sample after incubation with the test substance for 6 h to the peak area of the internal standard; RatioT0: a ratio of the peak area of the sample after incubation with the test substance for 0 h to the peak area of the internal standard. Table 8. Plasma protein binding rate (Fu%) data for various species of example compounds

[2] = In-vivo pharmacokinetic study in beagle dogs; set-up: species or system male beagle dogs; settings: dog, plasma, po, intragastric administration
Protocol: 1.1 Instrument: high-performance liquid chromatograph: SHIMADZU LC-30AD; mass spectrum: AB SCIEX mass spectrometer Triple Quad 5500; all measured data were calculated and processed using Microsoft Excel, and relevant pharmacokinetic parameters were calculated using WinNonlin software. […] Chromatographic column: Agilent EC-C18 2.7 µm (50 × 2.1 mm); column temperature: 40 °C; mobile phase A: water (0.1% formic acid); mobile phase B: acetonitrile; flow rate: 0.60 mL/min; gradient elution; elution gradient: 0.30 min: 5% B; 1.90 min: 95% B; 2.20 min: 95% B; 2.21 min: 5% B; 2.50 min: stop. Sample injection amount: 10 µL.
1.2 Animals: 3 male beagle dogs were used. The body weight range was 8-15 kg. The beagle dogs were fasted 12 h before administration and 4 h after administration, and given ad libitum access to water during the assay.
1.3 Vehicle: 0.5% HPMC (hydroxypropyl methylcellulose) + 0.4% Tween80 + 99.1% water.
After the intragastric administration, blood samples were taken at 0.25 h, 0.5 h, 1 h, 2 h, 4 h, 6 h, 8 h, 10 h, 12 h, 24 h, and 48 h. The blood collection mode is as follows: venipuncture was used, EDTA-K2 was used as an anticoagulation agent, the collected blood sample was transferred into a microcentrifuge tube containing the anticoagulation agent, and the tube was centrifuged at 4 °C and 2000 g for 10 min to separate the plasma. All plasma samples collected were stored at -75±15 °C until analysis.
1.4 Plasma sample pretreatment: 50 µL of the plasma sample was taken, and 200 µL of an internal standard solution prepared with acetonitrile was added for precipitation; subsequently, the sample was vortexed for 1 min and mixed homogenously; the precipitated sample was centrifuged at 4 °C and 3900 rpm for 15 min; the supernatant was pipetted, and water was added for 3-fold dilution; 10 µL of the sample was injected; and quantitative analysis was performed by adopting a liquid chromatography-mass spectrometry technology.
All measured data were collected and processed by the relevant software, and pharmacokinetic parameters were calculated using Winnonlin software. Pharmacokinetic parameters of some compounds in the examples in beagle dogs

CYP3A = experiment: Inhibitory effect on P450 enzymes in vitro (human liver microsomes), CYP3A; type: in vitro ADME; settings: final concentration 10 µM; for inhibition at 5 min, 10 µM: probe midazolam, substrate midazolam, read-out: % inhibition rate CYP3A (midazolam); for inhibition at 10 min, 10 µM: probe testosterone, substrate testosterone, read-out: % inhibition rate CYP3A (testosterone)
Protocol: 1.1 Preparation of compounds: The compounds prepared in the examples were each dissolved in dimethylsulfoxide to give solutions at a concentration of 2 mmol/L.
1.2 Test methods: • 1) Incubation system: human liver microsomes, a MgCl2 solution, a phosphate buffer solution, and a substrate solution were each added a 96-well deep-well plate and mixed homogenously. In the final incubation system, the concentration of the human liver microsomes was 0.2 mg/mL, and the final concentrations of the MgCl2 solution and the phosphate buffer solution were 5 mM and 100 mM, respectively. • 2) 1 µL of the substrate solution was added to the incubation system, and the final concentrations of CYP1A2 phenacetin, 2C8 paclitaxel […], 2C19 mephenytoin, 2D6 midazolam, and 3A midazolam substrates were 40 µM (phenacetin), 5 µM (paclitaxel), 50 µM (mephenytoin), 10 µM (mephenytoin), 5 µM (midazolam), and 50 µM […], respectively. • 3) 1 µL of the example compound or vehicle (DMSO) was added to the incubation system, and the incubation system was pre-warmed for 5 min in a 37 °C water bath before starting the reaction with 20 µL of 10 mM NADPH solution.
1.3 Sample treatment: Within the designated time (20 min for phenacetin, 10 min for paclitaxel, 20 min for mephenytoin, 20 min for dextromethorphan, 5 min for midazolam, and 10 min for testosterone), 400 µL of methanol containing the internal standard was added to terminate the reaction, and the mixture was vortexed and mixed homogeneously. Then, the deep-well plate was centrifuged at 3220 g and 4 °C for 40 min. 100 µL of the supernatant was transferred into a new plate, and 150 µL of purified water was added. The mixture was mixed homogenously for LC-MS/MS analysis. Table 11. Inhibitory effects of some compounds in the examples on CYP enzymes

[3] = Assay for plasma protein binding rate (equilibrium dialysis), human plasma; type: in vitro ADME; settings: dialysis 6 h at 37 °C, read-out: Human (Fu%)
Protocol: as §1, §2, §3

[4] = male, 1 mg/kg, read-out: AUC0-48h

| Compound | fraction unbound at 6 h, 1 µM [1] | half-life ([2]; male, beagle, 0.6 mg/kg) [h] | AUC(0-inf) ([2]; male, 0.6 mg/kg) [ng·h/mL] | Cmax ([2]; male, 0.6 mg/kg) [ng/mL] | Tmax ([2]; male, 0.6 mg/kg) [h] | AUC(0-t) ([2]; male, 0.6 mg/kg, read-out: AUC0-48h) [ng·h/mL] | inhibition at 5 min, 10 µM (CYP3A) [%] | inhibition at 10 min, 10 µM (CYP3A) [%] | fraction unbound at 6 h, 1 µM [3] | half-life ([2]; male, beagle, 1 mg/kg) [h] | AUC(0-inf) ([2]; male, 1 mg/kg) [ng·h/mL] | Cmax ([2]; male, 1 mg/kg) [ng/mL] | Tmax ([2]; male, 1 mg/kg) [h] | AUC(0-t) [2, 4] [ng·h/mL] | AUC(0-inf) ([2]; 1 mg/kg) [ng·h/mL] | Cmax ([2]; 1 mg/kg) [ng/mL] | Tmax ([2]; 1 mg/kg) [h] | half-life ([2]; 1 mg/kg) [h] | AUC(0-t) at 48 h ([2]; 1 mg/kg, read-out: AUC0-48h) [ng·h/mL] |
| --- | --- | --- | --- | --- | --- | --- | --- | --- | --- | --- | --- | --- | --- | --- | --- | --- | --- | --- | --- |
| COc1cc2c(cc1S(=O)(=O)Nc1noc3cc(Cn4cccn4)nc(OC)c13)CCCC2 [Example 2, N-(6-((1H-Pyrazol-1-yl)methyl)-4-methoxyisoxazolo[4,5-c]pyridin-3-yl)-3-methoxy-5,6,7,8-tetrahydronaphthalene-2-sulfonamide] | 0.0167 | 173 | 379000 | 1800 | 4 | 66500 | -5.22 | 5.84 | 0.0099 |  |  |  |  |  |  |  |  |  |  |
| COc1ccc2c(c1S(=O)(=O)Nc1noc3cc(Cn4cccn4)nc(OC)c13)OCC2 [Example 9, N-(6-((1H-Pyrazol-1-yl)methyl)-4-methoxyisoxazolo[4,5-c]pyridin-3-yl)-6-methoxy-2,3-dihydrobenzofuran-7-sulfonamide] | 0.0257 |  |  |  |  |  |  |  | 0.0069 | ≤ 15 | 122000 | 9230 | 1.33 | 114000 |  |  |  |  |  |
| COc1ccc2ccoc2c1S(=O)(=O)Nc1noc2cc(Cn3cccn3)nc(OC)c12 [Example 10, N-(6-((1H-Pyrazol-1-yl)methyl)-4-methoxyisoxazolo[4,5-c]pyridin-3-yl)-6-methoxybenzofuran-7-sulfonamide] | 0.0132 |  |  |  |  |  | -4.28 | -2.93 | 0.0073 | ≤ 15 | 47500 | 6250 | 0.83 | 46700 |  |  |  |  |  |
| COc1cc2c(cc1S(=O)(=O)Nc1noc3cc(Cn4cccn4)nc(OC)c13)OCC2 [Example 59, N-(6-((1H-Pyrazol-1-yl)methyl)-4-methoxyisoxazolo[4,5-c]pyridin-3-yl)-5-methoxy-2,3-dihydrobenzofuran-6-sulfonamide] | 0.0414 |  |  |  |  |  | -12.1 | -7.66 | 0.0248 | ≤ 15 | 55900 | 8380 | 0.67 | 55500 |  |  |  |  |  |
| COc1cc2c(cc1S(=O)(=O)Nc1noc3cc(Cn4cccn4)nc(OC)c13)CCCO2 [Example 76, N-(6-((1H-Pyrazol-1-yl)methyl)-4-methoxyisoxazolo[4,5-c]pyridin-3-yl)-7-methoxy-3,4-dihydro-1H-benzopyran-6-sulfonamide] | 0.0144 |  |  |  |  |  |  |  | 0.0118 |  |  |  |  |  | 749000 | 14000 | 2 | 45.4 | 225000 |
